Laboratory results from patent US20020026053A1, “Novel 3-(substituted) -2- indolinones compounds and use thereof as inhibitors of protein kinase activity” (priority 1997, published 2002).

Biological target: T1, Met receptor (EGFR/Met chimeric cells, EMR) (Homo sapiens, UniProt P08581)
T1 construct: expressed in transfected cells; the other entry of the earlier key: EGFR (P00533, Epidermal growth factor receptor)
Assay: Met Autophosphorylation Assay
Type: biochemical
Details: protocol P.130
How it was run: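 Met phosphorylation was measured by capture ELISA. Lysates (90 μg/100 μl, HNTG plus 1 mM PMSF) from transiently transfected EGFR/Met chimera (EMR) cells were bound for 60 min at room temperature to wells holding rabbit anti-Met (C-28) on goat anti-rabbit coat. Phosphotyrosine was the read-out.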

T1 sequence (P08581 with tags, fused parts or gaps): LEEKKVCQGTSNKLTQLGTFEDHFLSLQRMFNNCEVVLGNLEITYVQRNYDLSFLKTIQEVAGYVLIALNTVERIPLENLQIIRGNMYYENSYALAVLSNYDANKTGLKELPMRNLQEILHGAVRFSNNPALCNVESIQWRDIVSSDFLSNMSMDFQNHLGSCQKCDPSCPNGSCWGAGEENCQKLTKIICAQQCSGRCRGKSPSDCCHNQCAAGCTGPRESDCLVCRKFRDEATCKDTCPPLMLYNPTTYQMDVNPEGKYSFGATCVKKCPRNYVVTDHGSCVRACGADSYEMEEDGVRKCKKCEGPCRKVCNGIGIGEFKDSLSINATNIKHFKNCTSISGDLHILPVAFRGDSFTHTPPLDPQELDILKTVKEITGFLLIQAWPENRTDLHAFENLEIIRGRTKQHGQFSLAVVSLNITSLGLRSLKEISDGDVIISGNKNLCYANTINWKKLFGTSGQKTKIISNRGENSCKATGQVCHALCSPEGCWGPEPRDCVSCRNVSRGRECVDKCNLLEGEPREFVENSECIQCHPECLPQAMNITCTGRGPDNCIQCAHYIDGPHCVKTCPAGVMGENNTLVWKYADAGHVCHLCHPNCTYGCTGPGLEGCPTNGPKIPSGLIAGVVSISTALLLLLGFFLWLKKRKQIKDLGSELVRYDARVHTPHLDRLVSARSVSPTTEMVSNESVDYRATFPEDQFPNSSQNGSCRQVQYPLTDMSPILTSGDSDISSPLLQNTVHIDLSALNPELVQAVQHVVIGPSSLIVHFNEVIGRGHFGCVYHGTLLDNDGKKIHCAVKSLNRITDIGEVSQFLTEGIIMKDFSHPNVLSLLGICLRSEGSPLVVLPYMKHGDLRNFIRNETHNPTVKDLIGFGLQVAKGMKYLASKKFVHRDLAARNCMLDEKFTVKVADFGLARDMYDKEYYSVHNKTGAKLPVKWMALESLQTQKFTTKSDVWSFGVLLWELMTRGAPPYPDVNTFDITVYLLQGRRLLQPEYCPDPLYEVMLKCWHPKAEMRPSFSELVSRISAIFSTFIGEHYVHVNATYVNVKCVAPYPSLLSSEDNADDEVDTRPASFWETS

Row | Structure (SMILES) | Met Kinase % Inhibition (P.130) [%]
1 | COc1ccc(Oc2cccc(C=C3C(=O)Nc4c(Br)cc(Br)c(C)c43)c2)cc1 [10739/H08] | 22.9
2 | Cc1c(Br)cc(Br)c2c1C(=Cc1ccoc1)C(=O)N2 [10739/H10] | 62.4
